Reference: patent US11203582B2, “Benzamide derivatives for inhibiting endoplasmic reticulum (ER) stress” (The Board of Regents of the University of Oklahoma, priority 2017, dated 2021)

Columns and labels:
GRP94 mRNA = experiment: qRT-PCR of GRP94 mRNA in Tm-treated INS-1 cells; type: cell-based, rat; details: Tm 0.1 μg/mL co-treatment, 8 h
Protocol: INS-1 cells were treated with or without Tm (0.1 μg/mL) in the presence of 13d or DMSO for 8 h. Bip (A) and GRP94 (B) mRNA levels were analyzed by qRT-PCR. Relative mRNA levels were normalized against the housekeeping gene Cyclophilin A using the comparative CT method. The results are the means of 3 replicate wells and representative of 3 independent experiments. ** P<0.01 compared with Tm treatment alone. Error bars indicate SD.
We then investigated the effects of 13d on the activation of ATF6 in β-cells under ER stress. Activated ATF6 acts as a homodimer or as an ATF6-XBP1s heterodimer to control the up-regulation of select UPR target genes including the chaperone proteins BiP and GRP94. Therefore, these two chaperone proteins were evaluated in the INS-1 cells in the presence of Tm.
INS-1 cells were seeded at 4×10^5 cells/well in 6-well plates and treated with compounds for the indicated times. Total RNA was extracted using TRIzol reagent (Invitrogen, Carlsbad, Calif.) according to the manufacturer's protocol, and 2 μg of total RNA was reverse transcribed using a Superscript kit (Invitrogen). […] Relative mRNA levels were normalized against the housekeeping gene Cyclophilin A and were determined by ΔΔCt calculated from the difference in ΔCt values between the target gene and Cyclophilin A with and without treatment, based on comparative CT (cycle threshold) method. […]

βTC6 cells = experiment: Cell survival assay, intracellular ATP, βTC6 cells treated with Tm; type: cell-based; details: 72 h, FIG. 2C
Description: The measurement of intracellular ATP level was use as a surrogate assay for cell viability. […] To confirm the authenticity of 13d's protective effect on β-cell viability (not simply an increase in ATP-specific measurement), we used the MTT assay, which measures the activity of NAD(P)H-dependent cellular oxidoreductase enzymes, as an orthogonal method to measure cell viability. […] To determine whether the protective effect of 13d on β-cells is specific to INS-1 cells, another β-cell line, βTC6, was used. […] In addition, compound 13d on its own had no effect on β-cell viability in both cell lines (FIG. 2C-D). […]
INS-1 cells or βTC6 cells were seeded at 3×10^3 cells/well in a 384-well plate and treated with compounds at the indicated concentrations. […] Cell viability was measured with an EnVision multilabel plate reader (PerkinElmer, MA, USA).

CHOP mRNA = experiment: qRT-PCR of CHOP mRNA in INS-1 cells; type: cell-based, rat
Protocol: (A, B) INS-1 cells were treated with or without Tm (0.1 μg/mL) in the presence of 13d or DMSO for 8 h. ATF4 (A) and CHOP (B) mRNA levels were analyzed by qRT-PCR. Relative mRNA levels were normalized against the housekeeping gene Cyclophilin A using the comparative CT method. The results were expressed as the fold-increase over mRNA levels in untreated control cells and are the means of 3 replicate wells and representative of 3 independent experiments. ** P<0.01 compared with Tm treatment alone. Bar indicates SD. (C-E) INS-1 cells were treated with or without Tm (0.1 μg/mL) in the presence of 13d or DMSO for 8 hATF4 and CHOP protein levels were determined by Western blotting (C). α-Tubulin was used as an internal control. Quantification of ATF4 (D) and CHOP (E) protein levels was analyzed by ImageJ program, which was normalized by α-Tubulin protein level. The data shown are representative of 3 independent experiments.
Having established that compound 13d restores ER stress-impaired β-cell survival and function, we next investigated the mechanism of action by which 13d protects β-cells against ER stress. Chronic or severe ER stress activates all three branches of the UPR, PERK, IRE1α, and ATF6, leading to eventual cell death. First, we determined the effect of 13d on the activation of the PERK pathway in β-cells under ER stress. PERK activation phosphorylates eukaryotic translation initiator factor 2α (eIF2α), which in turn allows for the up-regulation of activating transcription factor 4 (ATF4) and of the pro-apoptotic gene C/EBP-homologous protein (CHOP). Thus, we used ATF4 and CHOP expression levels as markers of PERK pathway activation. […]
(§1) INS-1 cells were seeded at 4×10^5 cells/well in 6-well plates and treated with compounds for the indicated times. […] Relative mRNA levels were normalized against the housekeeping gene Cyclophilin A and were determined by ΔΔCt calculated from the difference in ΔCt values between the target gene and Cyclophilin A with and without treatment, based on comparative CT (cycle threshold) method. […]

MafA mRNA = experiment: qRT-PCR of MafA mRNA in Tm-treated INS-1 cells; type: cell-based, rat; details: Tm co-treatment, 24 h
Protocol: (A-D) INS-1 cells were treated with or without Tm (0.1 m/mL) in the presence of 13d at indicated concentrations or DMSO for 24 h. The mRNA levels of INS1 (A), INS2 (B), PDX1 (C), and MafA (D), were analyzed by qRT-PCR. Relative mRNA levels were normalized against the housekeeping gene Cyclophilin A using the comparative CT method. The results are the means of 3 replicate wells and are representative of 3 independent experiments. * P<0.05 and ** P<0.01 compared with Tm treatment alone. Bars indicate SD. (E) Insulin secretion by INS-1 cells incubated with 1.7 mM and 20 mM glucose in the presence or absence of Tm (0.1 μg/mL) and 13d. Secreted insulin was measured by ELISA after 24 h treatment. * P<0.05. The amount of insulin secreted in response to 1.7 mM glucose in the absence of Tm was set to 1.0 and was normalized with total protein concentration.
as §1

O=C(NCc1ccc(C(F)(F)F)cc1)c1cccc(CN2CCCCC2)c1 [Compound 13d, N-(4-trifluoromethylphenmethyl)-3-(N-piperidinyl)methyl benzamide]
Tm-induced up-regulation of GRP94 mRNA (GRP94 mRNA): almost completely reversed
viability of βTC6 cells under Tm treatment (intracellular ATP) (βTC6 cells; Tm 0.3 μg/mL): rescued the viability of βTC6 cells in a dose-dependent manner
effect of compound on its own on β-cell viability (βTC6 cells; βTC6 cells, no Tm): no effect
Tm-induced increase in CHOP mRNA level (CHOP mRNA; Tm 0.1 μg/mL co-treatment, 8 h): almost completely abolished
IC50 (CHOP mRNA; Tm, 8 h, read-out: IC50 for inhibition of Tm-induced CHOP expression): 37 nM
effect on CHOP mRNA level on its own (CHOP mRNA; without Tm): no effect
Tm-decreased MafA mRNA expression level (MafA mRNA): completely rescued
